How the values were obtained:
COX-2 enzyme = biological target: T1, COX-2 enzyme (Ovis aries, UniProt P79208); test: colorimetric COX (ovine) inhibitor screening assay, COX-2 inhibition; settings: peaks of subfractionated paradol fraction (Method C)
T1 sequence (P79208 17-603): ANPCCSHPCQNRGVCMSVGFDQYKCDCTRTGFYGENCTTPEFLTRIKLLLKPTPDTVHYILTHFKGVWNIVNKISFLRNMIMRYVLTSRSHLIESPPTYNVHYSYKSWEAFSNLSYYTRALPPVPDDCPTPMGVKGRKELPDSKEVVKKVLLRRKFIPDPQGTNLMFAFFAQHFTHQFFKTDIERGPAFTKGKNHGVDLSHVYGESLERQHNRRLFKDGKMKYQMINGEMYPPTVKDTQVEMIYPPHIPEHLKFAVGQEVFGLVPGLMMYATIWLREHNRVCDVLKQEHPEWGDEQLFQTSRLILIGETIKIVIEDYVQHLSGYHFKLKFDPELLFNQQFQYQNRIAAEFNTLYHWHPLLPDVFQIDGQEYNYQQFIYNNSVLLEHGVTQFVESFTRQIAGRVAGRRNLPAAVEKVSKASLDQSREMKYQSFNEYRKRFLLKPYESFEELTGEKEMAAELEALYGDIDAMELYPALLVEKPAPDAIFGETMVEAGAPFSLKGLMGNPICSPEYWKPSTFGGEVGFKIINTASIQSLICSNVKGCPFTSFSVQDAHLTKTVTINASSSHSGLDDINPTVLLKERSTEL
Description: The anti-inflammatory extract product of Example 1 was suspended in 95 vol. % ethanol at a concentration of 1 milligram (mg) extract product per milliliter (mL) ethanol to form an A. melegueta solution. The activity of the solution was tested with a colorimetric COX (ovine) inhibitor screening assay (catalogue no. 760111, Cayman Chemical, Ann Arbor, Mich.). The screening assay measures the peroxidase activity of cyclooxygenases by monitoring the appearance of oxidized N,N,N′N′-tetramethyl-p-phenylenediamine (TMPD) at 590 nm as previously described [Kulmacz, Prostaglandins, 25:531-540 (1983)]. A (relatively) higher TMPD concentration corresponds to a greater absorbance at 590 nm, a greater peroxidase activity, and a greater COX-2 activity (corresponding to the degree of inhibition of COX-2 activity).
Three milliliters (mL) of assay buffer concentrate (as provided) was diluted with 27 mL HPLC-grade water to provide a final assay buffer (0.1M Tris-HCl, pH 8). This buffer assay solution was used to prepare heme and COX-2 enzyme assay solutions. […]
10 μl of 95 vol. % ethanol was then added to the background and negative control wells. […] The absorbance for each well was measured at 590 nm using a plate reader.
The inhibitory activity was calculated from these absorbance readings. […]

[1] = test system: carrageenan hind paw edema; test: rat hind paw edema assay (Example 3); type: in vivo, Long-Evans-derived rats; settings: 150 mg/kg; 3 h after carrageenan
Description: Hind paw edema models have been extensively described [see, for example, […] et al. (eds.), Inflammation Protocols, pp. 115-122 (2003)] and have been accepted as in vivo models of human inflammation. […] Aspirin was administered to another group of three Long-Evans rats at 150 mg/kg dose as a positive control reference compound. The severity of the hind paw edema (i.e., the hind paw volume) was recorded 3 hours after carrageenan administration using a plethysmometer (Ugo Basile, Italy). The hind paw volume measurements correspond to the amount of induced swelling, and therefore a reduction in the swelling corresponds to a reduction in inflammation. The anti-inflammatory activity of the Aframomum melegueta extract products can be expressed as a percentage of edema reduction (relative to the negative control (i.e., full edema)).

[2] = test system: acetic acid-induced writhing; test: acetic acid-induced writhing assay; type: in vivo, mice; settings: 100 mg/kg
Description: This writhing assay has been previously described [Inoue et al., Arzneimittelforschung, 41(3):235-239 (1991).] […] An aqueous solution comprising 2 vol. % Tween 80 was administered as a negative control to another group of three mice. Aspirin was administered at 100 mg/kg as a positive control to a fourth group of three mice. The number of writhings per animal group was observed during the period beginning at about five minutes after acetic acid challenge and ending at about ten minutes after acetic acid challenge. The average number of writhings per animal group is an indication of pain, e.g., inflammation-induced pain, and therefore a reduction in the number of writhings per unit time per animal group corresponds to a reduction in inflammation. The reduction in number of writhings can be expressed relative to the negative control value as a percentage of inflammation inhibition.

[3] = test system: carrageenan hind paw edema; test: rat hind paw edema assay, two studies (Example 4); type: in vivo, Long-Evans-derived rats; settings: 1 h after carrageenan (positive control)
Description: Two studies were conducted. […] The anti-inflammatory extract product was administered to the groups at different dose protocols. Comparisons can be made relative to the negative and positive control animal groups. Groups 2 and 4 of the first and second study, and Groups 2 and 5 of the second study, received a single dose of the extract product one hour after hind paw injection of carrageenan (0.1 ml of a suspension of 1 wt. % carrageenan in […], intraplantar). Group 3 of both studies received a first dose of the extract product one hour before, and a second dose of the extract product one hour after, hind paw injection of carrageenan. […] Group 4 of the second study received a dose of the extract product one hour before administration of carrageenan. Group 5 of the first study and Group 6 of the second study received indomethacin, a commercially available nonsteroidal anti-inflammatory drug, one hour after hind paw injection of carrageenan. Indomethacin was administered as a positive control reference compound, and Groups 5 and 6 (of the first and second studies, respectively) represent positive control groups. The severity of the hind paw edema (i.e., hind paw volume) was recorded at 3 hours after, 5 hours after, and 24 hours after carrageenan administration using a plethysmometer (Ugo Basile, Italy). The hind paw volume measurements after carrageenan administration correspond to the amount of induced swelling, and a reduction in the percentage of increase in hind paw volume relative to the percentage of increase observed in hind paw volume for the negative control group corresponds to a reduction in inflammation. For example, the hind paw volume of the negative control group of the first study (Group 1) increased by about 45% whereas the hind paw volume of Group 2 (which received an Aframomum melegueta extract product) increased by only 25%.

[4] = first study Group 5: 15 mg/kg, 3 h
[5] = first study Group 5: 15 mg/kg, 5 h
[6] = first study Group 5: 15 mg/kg, 24 h
[7] = second study Group 6: 15 mg/kg, 3 h
[8] = second study Group 6: 15 mg/kg, 5 h
[9] = second study Group 6: 15 mg/kg, 24 h

SMILES: CCCCCCCC(=O)CCc1ccc(O)c(OC)c1 (single isomer, unassigned) [second peak, [6]-paradol]
- inhibition at 1000 µg/mL (COX-2 enzyme; read-out: COX-2 inhibitory activity, 1 mg/mL): 83%

SMILES: CCCCCCCC(=O)CCc1ccc(O)c(OC)c1 (single isomer, unassigned) [first peak, [6]-paradol]
- COX-2 inhibitory activity (COX-2 enzyme; 1 mg/mL): 74%

SMILES: CC(=O)Oc1ccccc1C(=O)O [aspirin]
- reduction of hind paw edema [1]: about 43%
- percentage of inflammation inhibition (writhing) [2]: 80%
- average number of writhings per animal group ([2]; 5-10 min after challenge): 3

SMILES: COc1ccc2c(c1)c(CC(=O)O)c(C)n2C(=O)c1ccc(Cl)cc1 [Indomethacin, indomethacin]
- Increase in rat hind paw volume after carrageenan administration [3, 4]: 44%
- rat hind paw volume after carrageenan administration [3, 4]: 1.51 ± 0.05 mL
- Increase in rat hind paw volume after carrageenan administration [3, 5]: 29%
- rat hind paw volume after carrageenan administration [3, 5]: 1.35 ± 0.08 mL
- Increase in rat hind paw volume after carrageenan administration [3, 6]: 12%
- rat hind paw volume after carrageenan administration [3, 6]: 1.18 ± 0.1 mL
- Increase in rat hind paw volume after carrageenan administration [3, 7]: 44%
- rat hind paw volume after carrageenan administration [3, 7]: 1.51 ± 0.05 mL
- Increase in rat hind paw volume after carrageenan administration [3, 8]: 29%
- rat hind paw volume after carrageenan administration [3, 8]: 1.35 ± 0.08 mL
- Increase in rat hind paw volume after carrageenan administration [3, 9]: 12%
- rat hind paw volume after carrageenan administration [3, 9]: 1.18 ± 0.1 mL

— patent US20050260290A1, “Botanical anti-inflammatory compositions and methods” (RUTGERS, THE STATE UNIVERSITY OF NEW JERSEY, priority 2004, published 2005)
